{
  "source": "patent US20260166122A1",
  "about": "“USE OF MICROPEPTIDE MIAC” (NANJING ANJI BIOTECHNOLOGY CO., LTD, priority 2023, published 2026)",
  "key": {"[1]": {"tested_on": "human esophageal carcinoma cells CaES-17", "assay_type": "cell-based", "details": "72 h"}, "[2]": {"tested_on": "human breast cancer cells MX-1", "assay_type": "cell-based", "details": "72 h"}, "[3]": {"tested_on": "human breast cancer cells MDA-MB-231", "assay_type": "cell-based", "details": "72 h"}, "[4]": {"tested_on": "human breast cancer cells MCF-7", "assay_type": "cell-based", "details": "72 h"}, "[5]": {"tested_on": "human non-small cell lung cancer cells NCI-H1299", "assay_type": "cell-based", "details": "72 h"}, "[6]": {"tested_on": "human lung giant cell carcinoma cells 95-D", "assay_type": "cell-based", "details": "72 h"}, "[7]": {"tested_on": "prostate cancer Du145 cells", "assay": "transwell migration inhibition, Du145", "assay_type": "cell-based, human", "details": "48 h", "procedure": "(§1) Human prostate cancer, cervical cancer, osteosarcoma, ovarian cancer, melanoma, and hepatocellular carcinoma cells were inoculated into transwell chambers, with 100 μL per well; for an administration group, 100 μL of a micropeptide MIAC was added to each of the chambers at a different dose; and no medicament was added to a blank group. Then, 0.6 mL of a complete medium comprising 10% FBS was added to transwell lower chambers to stimulate cell migration, followed by incubation at 37° C. with 5% CO2 for 48 h. The culture medium in the wells was discarded, and the cells were fixed with methanol at room temperature for 30 min, stained with 0.1% crystal violet at room temperature for 10 min, and rinsed thoroughly with clear water; the unmigrated cells in the upper layer were wiped off with a cotton swab; and the migrated cells were observed under a microscope, and four visual fields were selected for photography and counting. The migration inhibition rate (MI) was calculated using the following formula: […]\n(§2) where Ntest represents the number of migrated cells in the administration group, and Ncontrol represents the number of migrated cells in the blank control group."}, "[8]": {"tested_on": "cervical cancer Hela cells", "assay": "transwell migration inhibition, Hela", "assay_type": "cell-based, human", "details": "48 h", "procedure": "as §1, §2"}, "osteosarcoma MG-63 cells": {"tested_on": "osteosarcoma MG-63 cells", "assay": "transwell migration inhibition, MG-63", "assay_type": "cell-based, human", "details": "48 h", "procedure": "as §1, §2"}, "[9]": {"tested_on": "ovarian cancer SKOV3 cells", "assay": "transwell migration inhibition, SKOV3", "assay_type": "cell-based, human", "details": "48 h", "procedure": "as §1, §2"}, "[10]": {"tested_on": "malignant melanoma A375 cells", "assay": "transwell migration inhibition, A375", "assay_type": "cell-based, human", "details": "48 h", "procedure": "as §1, §2"}, "[11]": {"tested_on": "hepatocellular carcinoma Hep3B cells", "assay": "transwell migration inhibition, Hep3B", "assay_type": "cell-based, human", "details": "48 h", "procedure": "as §1, §2"}, "[12]": {"tested_on": "human hepatocellular carcinoma Hep3B cells", "assay": "subcutaneously transplanted Hep3B tumor in nude mice", "assay_type": "in vivo, BALB/c nude mouse", "details": "Hep3B subcutaneous transplanted tumor, BALB/c nude mice, 5, 10, 15, 20 mg/kg; dose-dependent", "procedure": "Human hepatocellular carcinoma Hep3B cells were cultured in large quantities and digested with a 0.25% trypsin solution; and the cell suspension after digestion termination was centrifuged at 1000 rpm for 5 minutes, and the cells were resuspended in a serum-free MEM medium and then counted to adjust the cell concentration to 5×10^7 cells/mL. Each BALB/c nude mouse (4-6 weeks old, female, weighing 14-16 g, adaptively housed in an SPF animal breeding room for 1 week) was inoculated with 100 μL of the cell suspension in the left axilla, with an inoculated cell amount of 5×10^6 cells. After inoculation, the tumor growth at the inoculation site of nude mice was closely observed. On the 7th day after inoculation, white nodules appeared at the inoculation site, which could be moved subcutaneously upon touch. As the tumor tissue grew, a hard tumor mass gradually formed at the inoculation site. […] The volume of the transplanted tumor was measured and recorded every two days, and the formula for calculating the tumor volume (TV) was: tumor volume=0.5×a×b^2, where a is the length (mm) of the transplanted tumor and b is the width (mm) of the transplanted tumor."}},
  "note": "Like-named read-outs stand apart in the source and are kept apart here. Ends that are not written are not given here.",
  "data": [
    {"sequence": "MERAGVPGFSPRRSSVEAKMQSTSCSVRKSSTVTAWPAVVLLLSWGQRRGG [MIAC, micropeptide inhibiting actin cytoskeleton]", "values": [
      {"measurement": "OD", "setting": "[1]; CaES-17, 50 μM", "value": "1.168 ± 0.044"},
      {"measurement": "OD", "setting": "[1]; CaES-17, 100 μM", "value": "0.672 ± 0.051"},
      {"measurement": "OD", "setting": "[1]; CaES-17, 200 μM", "value": "0.466 ± 0.022"},
      {"measurement": "OD", "setting": "[2]; MX-1, 50 μM", "value": "1.020 ± 0.028"},
      {"measurement": "OD", "setting": "[2]; MX-1, 100 μM", "value": "0.808 ± 0.102"},
      {"measurement": "OD", "setting": "[2]; MX-1, 200 μM", "value": "0.630 ± 0.051"},
      {"measurement": "OD", "setting": "[3]; MDA-MB-231, 50 μM", "value": "0.777 ± 0.050"},
      {"measurement": "OD", "setting": "[3]; MDA-MB-231, 100 μM", "value": "0.378 ± 0.058"},
      {"measurement": "OD", "setting": "[3]; MDA-MB-231, 200 μM", "value": "0.206 ± 0.016"},
      {"measurement": "OD", "setting": "[4]; MCF-7, 50 μM", "value": "1.281 ± 0.040"},
      {"measurement": "OD", "setting": "[4]; MCF-7, 100 μM", "value": "0.973 ± 0.027"},
      {"measurement": "OD", "setting": "[4]; MCF-7, 200 μM", "value": "0.814 ± 0.047"},
      {"measurement": "OD", "setting": "[5]; NCI-H1299, 50 μM", "value": "1.090 ± 0.022"},
      {"measurement": "OD", "setting": "[5]; NCI-H1299, 100 μM", "value": "0.754 ± 0.06"},
      {"measurement": "OD", "setting": "[5]; NCI-H1299, 200 μM", "value": "0.467 ± 0.012"},
      {"measurement": "OD", "setting": "[6]; 50 μM", "value": "1.188 ± 0.022"},
      {"measurement": "OD", "setting": "[6]; 100 μM", "value": "0.863 ± 0.054"},
      {"measurement": "OD", "setting": "[6]; 200 μM", "value": "0.341 ± 0.010"},
      {"measurement": "Inhibition rate (%)", "setting": "[7]; Du145, 3.125 μmol/L", "value": 39.23, "unit": "%"},
      {"measurement": "Number of migrated cells", "setting": "[7]; Du145, 3.125 μmol/L", "value": "349.3 ± 98.5"},
      {"measurement": "Inhibition rate (%)", "setting": "[7]; Du145, 6.25 μmol/L", "value": 69.77, "unit": "%"},
      {"measurement": "Number of migrated cells", "setting": "[7]; Du145, 6.25 μmol/L", "value": "173.8 ± 48.8"},
      {"measurement": "Inhibition rate (%)", "setting": "[7]; Du145, 12.5 μmol/L", "value": 82.51, "unit": "%"},
      {"measurement": "Number of migrated cells", "setting": "[7]; Du145, 12.5 μmol/L", "value": "100.5 ± 11.8"},
      {"measurement": "Inhibition rate (%)", "setting": "[7]; Du145, 25 μmol/L", "value": 91.87, "unit": "%"},
      {"measurement": "Number of migrated cells", "setting": "[7]; Du145, 25 μmol/L", "value": "46.8 ± 8.5"},
      {"measurement": "Inhibition rate (%)", "setting": "[7]; Du145, 50 μmol/L", "value": 94.56, "unit": "%"},
      {"measurement": "Number of migrated cells", "setting": "[7]; Du145, 50 μmol/L", "value": "31.3 ± 8.4"},
      {"measurement": "Inhibition rate (%)", "setting": "[8]; 6.25 μmol/L", "value": 12.76, "unit": "%"},
      {"measurement": "Number of migrated cells", "setting": "[8]; 6.25 μmol/L", "value": "475.0 ± 53.3"},
      {"measurement": "Inhibition rate (%)", "setting": "[8]; 12.5 μmol/L", "value": 39.23, "unit": "%"},
      {"measurement": "Number of migrated cells", "setting": "[8]; 12.5 μmol/L", "value": "296.8 ± 45.0"},
      {"measurement": "Inhibition rate (%)", "setting": "[8]; 25 μmol/L", "value": 33.83, "unit": "%"},
      {"measurement": "Number of migrated cells", "setting": "[8]; 25 μmol/L", "value": "360.3 ± 119.4"},
      {"measurement": "Inhibition rate (%)", "setting": "[8]; 50 μmol/L", "value": 61.30, "unit": "%"},
      {"measurement": "Number of migrated cells", "setting": "[8]; 50 μmol/L", "value": "210.5 ± 66.6"},
      {"measurement": "Inhibition rate (%)", "setting": "osteosarcoma MG-63 cells; MG-63, 3.125 μmol/L", "value": 64.05, "unit": "%"},
      {"measurement": "Number of migrated cells", "setting": "osteosarcoma MG-63 cells; MG-63, 3.125 μmol/L", "value": "129.5 ± 19.9"},
      {"measurement": "Inhibition rate (%)", "setting": "osteosarcoma MG-63 cells; MG-63, 6.25 μmol/L", "value": 83.21, "unit": "%"},
      {"measurement": "Number of migrated cells", "setting": "osteosarcoma MG-63 cells; MG-63, 6.25 μmol/L", "value": "60.5 ± 26.7"},
      {"measurement": "Inhibition rate (%)", "setting": "osteosarcoma MG-63 cells; MG-63, 12.5 μmol/L", "value": 90.98, "unit": "%"},
      {"measurement": "Number of migrated cells", "setting": "osteosarcoma MG-63 cells; MG-63, 12.5 μmol/L", "value": "32.5 ± 6.0"},
      {"measurement": "Inhibition rate (%)", "setting": "osteosarcoma MG-63 cells; MG-63, 25 μmol/L", "value": 93.13, "unit": "%"},
      {"measurement": "Number of migrated cells", "setting": "osteosarcoma MG-63 cells; MG-63, 25 μmol/L", "value": "24.8 ± 9.6"},
      {"measurement": "Inhibition rate (%)", "setting": "[9]; SKOV3, 12.5 μmol/L", "value": 17.17, "unit": "%"},
      {"measurement": "Number of migrated cells", "setting": "[9]; SKOV3, 12.5 μmol/L", "value": "907.3 ± 46.5"},
      {"measurement": "Inhibition rate (%)", "setting": "[9]; SKOV3, 25 μmol/L", "value": 52.28, "unit": "%"},
      {"measurement": "Number of migrated cells", "setting": "[9]; SKOV3, 25 μmol/L", "value": "523.8 ± 35.3"},
      {"measurement": "Inhibition rate (%)", "setting": "[9]; SKOV3, 50 μmol/L", "value": 62.04, "unit": "%"},
      {"measurement": "Number of migrated cells", "setting": "[9]; SKOV3, 50 μmol/L", "value": "415.8 ± 21.7"},
      {"measurement": "Inhibition rate (%)", "setting": "[10]; A375, 12.5 μmol/L", "value": 46.18, "unit": "%"},
      {"measurement": "Number of migrated cells", "setting": "[10]; A375, 12.5 μmol/L", "value": "139.3 ± 28.5"},
      {"measurement": "Inhibition rate (%)", "setting": "[10]; A375, 25 μmol/L", "value": 36.52, "unit": "%"},
      {"measurement": "Number of migrated cells", "setting": "[10]; A375, 25 μmol/L", "value": "164.3 ± 40.1"},
      {"measurement": "Inhibition rate (%)", "setting": "[10]; A375, 50 μmol/L", "value": 48.70, "unit": "%"},
      {"measurement": "Number of migrated cells", "setting": "[10]; A375, 50 μmol/L", "value": "132.8 ± 35.1"},
      {"measurement": "Inhibition rate (%)", "setting": "[11]; 12.5 μmol/L", "value": 66.54, "unit": "%"},
      {"measurement": "Number of migrated cells", "setting": "[11]; 12.5 μmol/L", "value": "110.8 ± 29.3"},
      {"measurement": "Inhibition rate (%)", "setting": "[11]; 25 μmol/L", "value": 65.33, "unit": "%"},
      {"measurement": "Number of migrated cells", "setting": "[11]; 25 μmol/L", "value": "114.8 ± 27.1"},
      {"measurement": "Inhibition rate (%)", "setting": "[11]; 50 μmol/L", "value": 64.95, "unit": "%"},
      {"measurement": "Number of migrated cells", "setting": "[11]; 50 μmol/L", "value": "116.0 ± 26.1"},
      {"measurement": "in vivo tumor growth (tumor volume, tumor weight) versus blank control", "setting": "[12]", "value": "significantly inhibit the in vivo tumor growth"}
    ]}
  ]
}
